{"source": "PubChem BioAssay AID1259409", "about": "(Chemical Carcinogenesis Research Information System (CCRIS), 2018)", "origin": "cited, not measured here", "tested_on": "rodent chemically induced tumor inhibition, incidence and multiplicity", "experiment": "CCRIS tumor inhibitor studies", "settings": "Route [Inhibitor]: ORAL, Species: RAT, Strain/Sex: F344/MALE, Promoter: NONE USED", "data": [{"smiles": "O=C1O[C@H]([C@@H](O)CO)C(O)=C1O", "values": [{"measurement": "tumour outcome (control, treated, inhibition, significance)", "setting": "Carcinogen: N-BIS(2-HYDROXYPROPYL)NITROSAMINE, 53609-64-6, Dose [Inhibitor]: 0, 5% IN DIET FOR 30 WK BEGINNING POST CARCINOGEN TREATMENT (STUDY DURATION: 32 WK), Target Tissue: Type of Lesion: BLADDER: ADENOMA, Dose [Carcinogen]: 0.1% IN DRINKING WATER FOR 2 WK", "result": "5%, 10%, -100%, not calculated"}, {"measurement": "tumour outcome (control, treated, inhibition, significance)", "setting": "Carcinogen: N-BIS(2-HYDROXYPROPYL)NITROSAMINE, 53609-64-6, Dose [Inhibitor]: 0, 5% IN DIET FOR 30 WK BEGINNING POST CARCINOGEN TREATMENT (STUDY DURATION: 32 WK), Target Tissue: Type of Lesion: KIDNEY: TUMOR, Dose [Carcinogen]: 0.1% IN DRINKING WATER FOR 2 WK", "result": "10%, 30%, -200%, not calculated"}, {"measurement": "tumour outcome (control, treated, inhibition, significance)", "setting": "Carcinogen: N-BIS(2-HYDROXYPROPYL)NITROSAMINE, 53609-64-6, Dose [Inhibitor]: 0, 5% IN DIET FOR 30 WK BEGINNING POST CARCINOGEN TREATMENT (STUDY DURATION: 32 WK), Target Tissue: Type of Lesion: LUNG: ADENOMA, Dose [Carcinogen]: 0.1% IN DRINKING WATER FOR 2 WK", "result": "100%, 100%, 0%, not significant"}, {"measurement": "tumour outcome (control, treated, inhibition, significance)", "setting": "Carcinogen: N-BIS(2-HYDROXYPROPYL)NITROSAMINE, 53609-64-6, Dose [Inhibitor]: 0, 5% IN DIET FOR 30 WK BEGINNING POST CARCINOGEN TREATMENT (STUDY DURATION: 32 WK), Target Tissue: Type of Lesion: LUNG: CARCINOMA, Dose [Carcinogen]: 0.1% IN DRINKING WATER FOR 2 WK", "result": "45%, 20%, 56%, not calculated"}, {"measurement": "tumour outcome (control, treated, inhibition, significance)", "setting": "Carcinogen: N-BIS(2-HYDROXYPROPYL)NITROSAMINE, 53609-64-6, Dose [Inhibitor]: 0, 5% IN DIET FOR 30 WK BEGINNING POST CARCINOGEN TREATMENT (STUDY DURATION: 32 WK), Target Tissue: Type of Lesion: THYROID: ADENOMA, Dose [Carcinogen]: 0.1% IN DRINKING WATER FOR 2 WK", "result": "5%, 30%, -500%, not calculated"}, {"measurement": "tumour outcome (control, treated, inhibition, significance)", "setting": "Carcinogen: N-BIS(2-HYDROXYPROPYL)NITROSAMINE, 53609-64-6, Dose [Inhibitor]: 0, 5% IN DIET FOR 30 WK BEGINNING POST CARCINOGEN TREATMENT (STUDY DURATION: 32 WK), Target Tissue: Type of Lesion: THYROID: CARCINOMA, Dose [Carcinogen]: 0.1% IN DRINKING WATER FOR 2 WK", "result": "20%, 10%, 50%, not calculated"}, {"measurement": "tumour outcome (control, treated, inhibition, significance)", "setting": "Carcinogen: N-BUTYL-N-(4-HYDROXYBUTYL)NITROSAMINE, 3817-11-6, Dose [Inhibitor]: 4.45% IN BASAL DIET ADMINISTERED SIMULTANEOUSLY WITH CARCINOGEN DOSE FOR 20 WK (STUDY DURATION: 20 WK), Target Tissue: Type of Lesion: BLADDER: CARCINOMA, Dose [Carcinogen]: 0.025% IN DRINKING WATER FOR 20 WK", "result": "3/15 (20%), 6/14 (43%), -115%, not calculated"}, {"measurement": "tumour outcome (control, treated, inhibition, significance)", "setting": "Carcinogen: N-BUTYL-N-(4-HYDROXYBUTYL)NITROSAMINE, 3817-11-6, Dose [Inhibitor]: 4.45% IN BASAL DIET ADMINISTERED SIMULTANEOUSLY WITH CARCINOGEN DOSE FOR 20 WK (STUDY DURATION: 20 WK), Target Tissue: Type of Lesion: BLADDER: PAPILLOMA, Dose [Carcinogen]: 0.025% IN DRINKING WATER FOR 20 WK (FOR A TOTAL INTAKE OF 4.0 MMOL/RAT)", "result": "4/15 (27%), 4/14 (29%), -7%, not calculated"}, {"measurement": "tumour outcome (control, treated, inhibition, significance)", "setting": "Carcinogen: N-BUTYL-N-(4-HYDROXYBUTYL)NITROSAMINE, 3817-11-6, Dose [Inhibitor]: 5% DIET DAILY FOR 34 WK BEGINNING POST CARCINOGEN TREATMENT (STUDY DURATION: 38 WK), Target Tissue: Type of Lesion: URINARY BLADDER: PAPILLOMA, Dose [Carcinogen]: 0.01% IN DRINKING WATER FOR 4 WK", "result": "33%, 21%, 36%, not significant"}, {"measurement": "tumour outcome (control, treated, inhibition, significance)", "setting": "Carcinogen: N-BUTYL-N-(4-HYDROXYBUTYL)NITROSAMINE, 3817-11-6, Dose [Inhibitor]: 5% IN BASAL DIET ADMINISTERED SIMULTANEOUSLY WITH CARCINOGEN DOSE FOR 20 WK (STUDY DURATION: 20 WK), Target Tissue: Type of Lesion: BLADDER: CARCINOMA, Dose [Carcinogen]: 0.025% IN DRINKING WATER FOR 20 WK", "result": "3/15 (20%), 6/15 (40%), -100%, not calculated"}, {"measurement": "tumour outcome (control, treated, inhibition, significance)", "setting": "Carcinogen: N-BUTYL-N-(4-HYDROXYBUTYL)NITROSAMINE, 3817-11-6, Dose [Inhibitor]: 5% IN BASAL DIET ADMINISTERED SIMULTANEOUSLY WITH CARCINOGEN DOSE FOR 20 WK (STUDY DURATION: 20 WK), Target Tissue: Type of Lesion: BLADDER: PAPILLOMA, Dose [Carcinogen]: 0.025% IN DRINKING WATER FOR 20 WK (FOR A TOTAL INTAKE OF 4.7 MMOL/RAT)", "result": "4/15 (27%), 2/15 (13%), 50%, not significant"}, {"measurement": "tumour outcome (control, treated, inhibition, significance)", "setting": "Carcinogen: N-ETHYL-N-(4-HYDROXYBUTYL)NITROSAMINE, 54897-62-0, Dose [Inhibitor]: 4.45% IN BASAL DIET ADMINISTERED SIMULTANEOUSLY WITH CARCINOGEN DOSE FOR 20 WK (STUDY DURATION: 20 WK), Target Tissue: Type of Lesion: BLADDER: CARCINOMA, Dose [Carcinogen]: 0.021% IN DRINKING WATER FOR 20 WK", "result": "13/15 (87%), 14/15 (93%), -8%, not calculated"}, {"measurement": "tumour outcome (control, treated, inhibition, significance)", "setting": "Carcinogen: N-ETHYL-N-(4-HYDROXYBUTYL)NITROSAMINE, 54897-62-0, Dose [Inhibitor]: 4.45% IN BASAL DIET ADMINISTERED SIMULTANEOUSLY WITH CARCINOGEN DOSE FOR 20 WK (STUDY DURATION: 20 WK), Target Tissue: Type of Lesion: BLADDER: PAPILLOMA, Dose [Carcinogen]: 0.021% IN DRINKING WATER FOR 20 WK", "result": "14/15 (93%), 15/15 (100%), -7%, not calculated"}, {"measurement": "tumour outcome (control, treated, inhibition, significance)", "setting": "Carcinogen: N-ETHYL-N-(4-HYDROXYBUTYL)NITROSAMINE, 54897-62-0, Dose [Inhibitor]: 5% IN BASAL DIET ADMINISTERED SIMULTANEOUSLY WITH CARCINOGEN DOSE FOR 20 WK (STUDY DURATION: 20 WK), Target Tissue: Type of Lesion: BLADDER: CARCINOMA, Dose [Carcinogen]: 0.021% IN DRINKING WATER FOR 20 WK", "result": "13/15 (87%), 13/15 (87%), 0%, not significant"}]}]}
